We go through nine compounds from ChEMBL document CHEMBL1128237, “6-(4-pyridinyl)-1H-1,2,3-triazolo[4,5-d]-pyrimidin-4(5H)-one: a structurally novel competitive AMPA receptor antagonist” (J Med Chem, 1995).

Test [1] has as its target Glutamate receptor ionotropic AMPA (Homo sapiens) (UniProt P48058+P42263+P42262+P42261). Briefly: (§1) Inhibition of Ionotropic glutamate receptor AMPA binding to human hippocampal homogenates at concentration of 5-7 uM. The note with it: Hippocampus. The format is tissue-based.
Test [2] can be described thus: Ability to antagonize kainate-induced responses in frog oocyte. The format is functional.
The target of test [3] is T1, Glutamate receptor ionotropic AMPA (Homo sapiens, UniProt P42261+P42262+P42263+P48058). The test is described as §1. Format: tissue-based, Hippocampus.
A short description of test [4]: Inhibition of [3H]-kainic acid binding to kainate receptor at a concentration of 10 uM.
Test [5] is described as follows: Inhibition of [3H]-CGS 19755 binding to NMDA receptor at a concentration of 10 uM.
The nature of test [6]: Ability to antagonize AMPA-induced responses in frog oocytes. The note with it: oocyte. Format: functional, cell-based.
Test [7] has as its target T1, Glutamate receptor ionotropic AMPA. Briefly: Inhibition of Ionotropic glutamate receptor AMPA binding to human hippocampal homogenates. The format is tissue-based, Hippocampus.

The structures appear in SMILES notation.

The inhibition is the relative decrease from the control value, in per cent. `O=c1[nH]c(-c2ccncc2)nc2c1cnn2C1CCCC1`: the inhibition in test [1] was less than 5%.

In turn, `Nc1[nH]c(-c2ccncc2)nc2nnnc1-2` had an inhibition in test [1] of less than 5%.

As usually defined, the pA2 is the negative logarithm of the molar antagonist concentration that doubles the agonist concentration needed for the same response. A higher pA2 goes with higher antagonist potency. As a reminder, the IC50 is the midpoint of a concentration-inhibition curve. Regarding `Oc1[nH]c(-c2ccncc2)nc2nnnc1-2`, the pA2 in test [2] is listed as 6.2; in test [6], 6.08. In test [3], the IC50 was 1800 nM. Also, the results for the inhibition at 10 µM in test [4] and in test [5] were 37% and 17%, respectively. For the compound `Cc1nc(O)c2c[nH]nc2n1`, the inhibition in test [1] is less than 5%. For `O=c1[nH]c2cc([N+](=O)[O-])c([N+](=O)[O-])cc2[nH]c1=O` [DNQX], the IC50 in test [3] came out at 280 nM. On to `Oc1nc(-c2ccncc2)nc2c(C3CCCC3)n[nH]c12`, for which, in test [1], the inhibition was less than 5%.

Regarding `Oc1[nH]c(-c2ccncc2)nc2ncnc1-2`, the IC50 in test [7] came to 1900 nM.

In test [7], `Oc1nc(-c2ccncc2)nc2c1ncn2C1CCCC1` displayed an IC50 of 2100 nM. Besides, the inhibition at 10 µM in test [4] stood at 15%; in test [5], 25%. Compound `Nc1[nH]c(-c2ccncc2)nc2ncnc1-2` came in with an inhibition in test [1] of less than 5%.
